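Compound exposure: 48 hours, 5 concentrations, 96-well plates. The concentration for 50% growth inhibition is given as GI50. TGI marks complete inhibition of growth.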
Key:
Assay in all cases: growth of human tumour cells (NCI), 48 h
[1] = tested on: SK-MEL-2 melanoma
[2] = tested on: KM20L2 colon
[3] = tested on: HCT-15 colon
[4] = tested on: SN12C renal
[5] = tested on: SNB-19 CNS
[6] = tested on: OVCAR-5 ovarian
[7] = tested on: EKVX NSCLC
[8] = tested on: SF-295 CNS
[9] = tested on: OVCAR-8 ovarian
[10] = tested on: RXF 393 renal
[11] = tested on: CAKI-1 renal
[12] = tested on: HOP-92 NSCLC
[13] = tested on: MALME-3M melanoma
[14] = tested on: PC-3 prostate
[15] = tested on: A549 NSCLC
[16] = tested on: ACHN renal
[17] = tested on: SNB-78 CNS
[18] = tested on: SF-539 CNS
[19] = tested on: M14 melanoma
[20] = tested on: T-47D breast
[21] = tested on: A498 renal
[22] = tested on: SK-MEL-5 melanoma
[23] = tested on: MCF7 breast
[24] = tested on: KM12 colon
[25] = tested on: SW-620 colon
[26] = tested on: 786-0 renal
[27] = tested on: TK-10 renal
[28] = tested on: DMS 114 small cell lung
[29] = tested on: OVCAR-3 ovarian
[30] = tested on: NCI-H460 lung
[31] = tested on: HS 578T breast
[32] = tested on: UACC-62 melanoma
[33] = tested on: DMS 273 small cell lung
[34] = tested on: LOX IMVI melanoma
[35] = tested on: NCI/ADR-RES ovarian
[36] = tested on: NCI-H522 lung
[37] = tested on: SK-OV-3 ovarian
[38] = tested on: HCT-116 colon
[39] = tested on: MDA-MB-435
[40] = tested on: RPMI-8226 leukemia
[41] = tested on: HOP-18 NSCLC
[42] = tested on: XF 498 CNS
[43] = tested on: K-562 leukemia
[44] = tested on: M19-MEL melanoma
[45] = tested on: LXFL 529 NSCLC
[46] = tested on: HT29 colon
[47] = tested on: HOP-62 NSCLC
[48] = tested on: COLO 205 colon

With C[CH2][Sn]([CH2]C)([O]C(=O)c1cccc(OC)c1)[O][Sn]([CH2]C)([CH2]C)[O]C(=O)c1cccc(OC)c1 as the molecule, how does the GI50 [1] read?
The GI50 was 16.6 µM.

What about the TGI [1] of the same molecule?
The TGI was 37.4 µM.

And the GI50 [2]?
Its GI50 is 43.6 µM.

And the TGI [2]?
Its TGI is > 100 µM.

What about the GI50 [3] of the same molecule?
Its GI50 is 17.4 µM.

And the TGI [3]?
Its TGI is 35.4 µM.

What about the GI50 [4] of the same molecule?
Its GI50 is 19.9 µM.

What about the TGI [4] of the same molecule?
The TGI was 44.9 µM.

What about the GI50 [5] of the same molecule?
The GI50 was 23.1 µM.

What about the TGI [5] of the same molecule?
The TGI was 57.1 µM.

What about the GI50 [6] of the same molecule?
Its GI50 is 27 µM.

And the TGI [6]?
Its TGI is > 61.6 µM.

What about the GI50 [7] of the same molecule?
Its GI50 is > 40.8 µM.

What about the TGI [7] of the same molecule?
Its TGI is > 55.6 µM.

And the GI50 [8]?
Its GI50 is 20.8 µM.

What about the TGI [8] of the same molecule?
The TGI was 40.3 µM.

And the GI50 [9]?
Its GI50 is > 42.1 µM.

What about the TGI [9] of the same molecule?
The TGI was > 57 µM.

And the GI50 [10]?
The GI50 was 15 µM.

What about the TGI [10] of the same molecule?
Its TGI is 28.4 µM.

And the GI50 [11]?
The GI50 was 11.8 µM.

What about the TGI [11] of the same molecule?
The TGI was 24.3 µM.

What about the GI50 [12] of the same molecule?
Its GI50 is 15 µM.

What about the TGI [12] of the same molecule?
The TGI was 29.8 µM.

What about the GI50 [13] of the same molecule?
Its GI50 is 15 µM.

And the TGI [13]?
The TGI was 30.4 µM.

What about the GI50 [14] of the same molecule?
The GI50 was > 100 µM.

What about the TGI [14] of the same molecule?
The TGI was > 100 µM.

What about the GI50 [15] of the same molecule?
The GI50 was > 100 µM.

And the TGI [15]?
The TGI was > 100 µM.

What about the GI50 [16] of the same molecule?
The GI50 was 17.1 µM.

What about the TGI [16] of the same molecule?
The TGI was 31.4 µM.

And the GI50 [17]?
The GI50 was 16.2 µM.

And the TGI [17]?
The TGI was 32.9 µM.

What about the GI50 [18] of the same molecule?
The GI50 was 16.4 µM.

What about the TGI [18] of the same molecule?
The TGI was 30.4 µM.

What about the GI50 [19] of the same molecule?
Its GI50 is 30.9 µM.

What about the TGI [19] of the same molecule?
Its TGI is > 59.4 µM.

What about the GI50 [20] of the same molecule?
Its GI50 is 3.05 µM.

And the TGI [20]?
The TGI was 13.5 µM.

And the GI50 [21]?
The GI50 was 16 µM.

And the TGI [21]?
Its TGI is 30.2 µM.

What about the GI50 [22] of the same molecule?
The GI50 was 42.9 µM.

And the TGI [22]?
The TGI was > 64 µM.

And the GI50 [23]?
The GI50 was 10.1 µM.

What about the TGI [23] of the same molecule?
The TGI was 26.6 µM.

What about the GI50 [24] of the same molecule?
The GI50 was > 100 µM.

What about the TGI [24] of the same molecule?
The TGI was > 100 µM.

What about the GI50 [25] of the same molecule?
Its GI50 is 16.7 µM.

What about the TGI [25] of the same molecule?
Its TGI is 33.1 µM.

And the GI50 [26]?
Its GI50 is 17 µM.

And the TGI [26]?
Its TGI is 30.7 µM.

What about the GI50 [27] of the same molecule?
The GI50 was 16.8 µM.

What about the TGI [27] of the same molecule?
The TGI was 30.7 µM.

What about the GI50 [28] of the same molecule?
The GI50 was 15.9 µM.

What about the TGI [28] of the same molecule?
The TGI was 30.1 µM.

What about the GI50 [29] of the same molecule?
Its GI50 is 58 µM.

What about the TGI [29] of the same molecule?
Its TGI is > 100 µM.

What about the GI50 [30] of the same molecule?
Its GI50 is > 71 µM.

And the TGI [30]?
Its TGI is > 100 µM.

And the GI50 [31]?
Its GI50 is 29.3 µM.

And the TGI [31]?
The TGI was > 100 µM.

What about the GI50 [32] of the same molecule?
The GI50 was 16.6 µM.

What about the TGI [32] of the same molecule?
Its TGI is 31.4 µM.

And the GI50 [33]?
Its GI50 is 22.7 µM.

What about the TGI [33] of the same molecule?
Its TGI is 58.5 µM.

And the GI50 [34]?
The GI50 was 11.4 µM.

And the TGI [34]?
Its TGI is 25.9 µM.

And the GI50 [35]?
Its GI50 is > 100 µM.

What about the TGI [35] of the same molecule?
Its TGI is > 100 µM.

What about the GI50 [36] of the same molecule?
Its GI50 is 0.879 µM.

What about the TGI [36] of the same molecule?
The TGI was 2.4 µM.

And the GI50 [37]?
The GI50 was > 100 µM.

And the TGI [37]?
The TGI was > 100 µM.

And the GI50 [38]?
The GI50 was > 43.2 µM.

What about the TGI [38] of the same molecule?
Its TGI is > 58.8 µM.

And the GI50 [39]?
Its GI50 is 18.8 µM.

And the TGI [39]?
Its TGI is 42.4 µM.

And the GI50 [40]?
The GI50 was 13 µM.

What about the TGI [40] of the same molecule?
Its TGI is 54.3 µM.

And the GI50 [41]?
The GI50 was 15.9 µM.

And the TGI [41]?
The TGI was 29.3 µM.

And the GI50 [42]?
The GI50 was 16.1 µM.

What about the TGI [42] of the same molecule?
The TGI was 29.6 µM.

What about the GI50 [43] of the same molecule?
Its GI50 is 9.4 µM.

What about the TGI [43] of the same molecule?
The TGI was 60.3 µM.

What about the GI50 [44] of the same molecule?
Its GI50 is 17.1 µM.

What about the TGI [44] of the same molecule?
The TGI was 31.7 µM.

And the GI50 [45]?
Its GI50 is 10.1 µM.

And the TGI [45]?
The TGI was 21.7 µM.

And the GI50 [46]?
Its GI50 is 33.2 µM.

What about the TGI [46] of the same molecule?
The TGI was > 100 µM.

What about the GI50 [47] of the same molecule?
The GI50 was > 58.2 µM.

What about the TGI [47] of the same molecule?
Its TGI is > 100 µM.

What about the GI50 [48] of the same molecule?
The GI50 was 22 µM.

And the TGI [48]?
Its TGI is > 54.8 µM.

Source: PubChem BioAssay (NCI)
